Experimental data published in ChEMBL document CHEMBL3751781, “Three-dimensional QSAR analysis and design of new 1,2,4-oxadiazole antibacterials” (2016).
In brackets after ≈: the same amount, converted by molar mass.

Test system: Staphylococcus aureus
Assay: Antibacterial against Staphylococcus aureus
Assay type: functional
Settings: for MIC: Staphylococcus aureus

Row | SMILES | -logMIC | MIC [mg/L]
1 | Nc1ccc(-c2nc(-c3ccc(Oc4ccc(C(F)(F)F)cc4)cc3)no2)cc1F | 5.336 | 
2 | O=[N+]([O-])c1c[nH]nc1-c1nc(-c2ccc(Oc3ccc(F)c(F)c3)cc2)no1 | 5.261 | 2 (≈ 5.19 µM)
3 | O=[N+]([O-])c1ccccc1Oc1ccc(-c2noc(-c3ccc(O)cc3)n2)cc1 | 4.542 | 4 (≈ 10.7 µM)
4 | O=C(c1cccc(Oc2ccc(-c3noc(-c4ccc(O)cc4)n3)cc2)c1)C(F)(F)F | 4.669 | 4 (≈ 9.38 µM)
5 | Brc1ccc(-c2nc(-c3ccccc3)no2)cc1 | 0.856 | 128 (≈ 425 µM)
6 | Nc1c[nH]nc1-c1nc(-c2ccc(Oc3ccc(F)cc3)cc2)no1 | 3.048 | 
7 | Oc1ccc(-c2nc(-c3ccc(Oc4ccccc4)cc3)no2)cc1F | 4.467 | 
8 | Clc1c[nH]nc1-c1nc(-c2ccc(Oc3ccc(I)cc3)cc2)no1 | 6.141 | 1 (≈ 2.15 µM)
9 | Nc1c(F)cc(-c2nc(-c3ccc(Oc4ccccc4)cc3)no2)cc1F | 3.821 | 
10 | Fc1ccc(Oc2ccc(-c3noc(-c4n[nH]cc4Cl)n3)cc2)cc1Cl | 5.276 | 2 (≈ 5.11 µM)
11 | Cc1nc(-c2ccc(Oc3ccc(C(F)(F)F)cc3)cc2)no1 | 0.917 | 128 (≈ 400 µM)
12 | CC(=O)N(C(C)=O)c1c[nH]nc1-c1nc(-c2ccc(Oc3ccc(C(F)(F)F)cc3)cc2)no1 | 1.304 | 128 (≈ 272 µM)
13 | Oc1ccc(-c2nc(-c3ccc(Oc4cccc(CBr)c4)cc3)no2)cc1 | 4.662 | 4 (≈ 9.45 µM)
14 | COc1ccc(-c2nc(-c3ccc(Br)cc3)no2)cc1 | 0.951 | 128 (≈ 387 µM)
15 | COc1ccc(-c2nc(-c3ccc(Oc4ccc(F)cc4)cc3)no2)cc1OC | 1.12 | 128 (≈ 326 µM)
16 | O=C(Nc1c[nH]nc1-c1nc(-c2ccc(Oc3ccc(C(F)(F)F)cc3)cc2)no1)c1ccccn1 | 1.347 | 128 (≈ 260 µM)

Row | SMILES | -logMIC | MIC [mg/L]
17 | C#Cc1c[nH]nc1-c1nc(-c2ccc(Oc3ccc(C(F)(F)F)cc3)cc2)no1 | 7.369 | 0.25 (≈ 0.631 µM)
18 | O=C(O)c1ccc(Oc2ccc(-c3noc(-c4ccc(O)cc4)n3)cc2)cc1 | 1.766 | 64 (≈ 171 µM)
19 | Fc1ccc(Oc2ccc(-c3noc(-c4n[nH]cc4Br)n3)cc2)cc1F | 6.038 | 1 (≈ 2.39 µM)
20 | Fc1ccc(Oc2ccc(-c3noc(-c4cc[nH]c4)n3)cc2)cc1 | 0.92 | 128 (≈ 398 µM)
21 | Ic1c[nH]nc1-c1nc(-c2ccc(Oc3ccccc3)cc2)no1 | 6.064 | 
22 | Nc1ccc(-c2nc(-c3ccc(Oc4ccc(C(F)(F)F)cc4)cc3)no2)cc1 | 5.985 | 
23 | CCCCNc1c[nH]nc1-c1nc(-c2ccc(Oc3ccc(C(F)(F)F)cc3)cc2)no1 | 1.243 | 128 (≈ 289 µM)
24 | [N-]=[N+]=Nc1ccc(Oc2ccc(-c3noc(-c4ccc(O)cc4)n3)cc2)cc1 | 5.224 | 2 (≈ 5.39 µM)
25 | Oc1ccc(-c2nc(-c3ccc(Oc4ccccc4)c(Cl)c3)no2)cc1 | 5.206 | 2 (≈ 5.48 µM)
26 | FC(F)(F)c1ccc(Oc2ccc(-c3noc(-c4ccc5[nH]ccc5c4)n3)cc2)cc1 | 4.657 | 
27 | Oc1ccc(-c2nc(-c3ccc(Oc4ccc(F)cc4)cc3)no2)cc1F | 5.21 | 
28 | Oc1ccc(-c2nc(-c3ccc(Oc4ccccc4)cc3)no2)cc1 | 5.8 | 
29 | FC(F)(F)c1ccc(Oc2ccc(-c3noc(-c4n[nH]cc4Br)n3)cc2)cc1 | 6.11 | 
30 | Nc1c(F)cc(-c2nc(-c3ccc(Oc4ccc(C(F)(F)F)cc4)cc3)no2)cc1F | 5.378 | 2 (≈ 4.62 µM)
31 | CS(=O)(=O)Nc1ccc(-c2nc(-c3ccc(Oc4ccc(C(F)(F)F)cc4)cc3)no2)cc1 | 1.312 | 128 (≈ 269 µM)
32 | N#Cc1c[nH]nc1-c1nc(-c2ccc(Oc3ccc(C(F)(F)F)cc3)cc2)no1 | 5.292 | 
